In ChEMBL document CHEMBL1201862, “PubChem BioAssay data set” (2004):
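How tested: cells in 96-well plates exposed to compound for 48 hours at five concentrations. GI50 marks 50% less growth.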 Calls of active or inactive are those of the source. Rule as the data show it: active = GI50 up to about 1.1 µM and inactive = higher.

Key:
Experiment in all cases: DTP human tumour cell line panel, 48 h
A498 = tested on: A498
CAKI-1 = tested on: CAKI-1
HCT-15 = tested on: HCT-15
HL-60 = tested on: HL-60
HOP-92 = tested on: HOP-92
K562 = tested on: K562
KM12 = tested on: KM12
M14 = tested on: M14
MOLT-4 = tested on: MOLT-4
NCI-H226 = tested on: NCI-H226
NCI-H460 = tested on: NCI-H460
NCI-H522 = tested on: NCI-H522
OVCAR-5 = tested on: OVCAR-5
SF-295 = tested on: SF-295
SK-MEL-5 = tested on: SK-MEL-5
UACC-257 = tested on: UACC-257
UACC-62 = tested on: UACC-62
UO-31 = tested on: UO-31

Measured: GI50

CCC(C)(O)c1cn(-c2ccc(Cl)cc2)nn1 (stereo unspecified)
> 100 µM: HCT-15
inactive: A498 > 100 µM | CAKI-1 > 100 µM | HL-60 > 100 µM | HOP-92 > 100 µM | K562 > 100 µM | KM12 > 100 µM | M14 > 100 µM | MOLT-4 > 100 µM | NCI-H226 > 100 µM | NCI-H460 > 100 µM | NCI-H522 > 100 µM | OVCAR-5 > 100 µM | SF-295 > 100 µM | SK-MEL-5 > 100 µM | UACC-257 > 100 µM | UACC-62 > 100 µM | UO-31 > 100 µM

CN1CN(C2OC(CO)C(O)C2O)c2nc(N)[nH]c(=O)c21 (stereo unspecified)
> 100 µM: HCT-15
inactive: A498 > 100 µM | CAKI-1 > 100 µM | HL-60 > 100 µM | HOP-92 > 100 µM | K562 > 100 µM | KM12 > 100 µM | M14 > 100 µM | MOLT-4 > 100 µM | NCI-H226 > 100 µM | NCI-H460 > 100 µM | NCI-H522 5.15 µM | OVCAR-5 > 100 µM | SF-295 > 100 µM | SK-MEL-5 > 100 µM | UACC-257 > 100 µM | UACC-62 > 100 µM | UO-31 > 100 µM

CCSc1nnc(CSc2nc(-c3ccccc3)c(-c3ccccc3)[nH]2)n1-c1ccccc1
inactive: A498 18.5 µM | CAKI-1 23.7 µM | HL-60 25.8 µM | HOP-92 20.8 µM | K562 25.3 µM | KM12 16.9 µM | M14 19 µM | MOLT-4 15.2 µM | NCI-H226 14.1 µM | NCI-H460 18.9 µM | NCI-H522 16.4 µM | OVCAR-5 14.5 µM | SF-295 23.1 µM | SK-MEL-5 17.1 µM | UACC-257 18.6 µM | UACC-62 15.3 µM | UO-31 17.1 µM
18.5 µM: HCT-15

CCOC(=O)CC1=Nc2ccccc2SC1
inactive: A498 > 100 µM | CAKI-1 > 100 µM | HOP-92 > 100 µM | KM12 > 100 µM | M14 > 100 µM | MOLT-4 > 100 µM | NCI-H226 > 100 µM | NCI-H460 > 100 µM | NCI-H522 > 100 µM | OVCAR-5 > 100 µM | SF-295 > 100 µM | SK-MEL-5 > 100 µM | UACC-257 > 100 µM | UACC-62 > 100 µM | UO-31 > 100 µM
> 100 µM: HCT-15

C[C@]12CC/C(=N\O)C=C1CC[C@@H]1C2CC[C@@]2(C)C1CC[C@@H]2OC1CCCCO1 (stereo partly specified)
inactive: A498 > 100 µM | CAKI-1 > 10 µM | HOP-92 17.7 µM | K562 19 µM | KM12 16.7 µM | M14 18.3 µM | MOLT-4 12.4 µM | NCI-H460 20.4 µM | NCI-H522 17.4 µM | OVCAR-5 15.5 µM | SF-295 18.5 µM | SK-MEL-5 32.1 µM | UACC-257 20.4 µM | UACC-62 > 10 µM | UO-31 21.7 µM
20.1 µM: HCT-15

N/N=c1/nc2n(c3ncccc13)C=CNN2
inactive: CAKI-1 > 100 µM | HL-60 > 100 µM | HOP-92 > 100 µM | K562 > 100 µM | KM12 > 100 µM | MOLT-4 > 100 µM | NCI-H226 > 100 µM | NCI-H460 > 100 µM | NCI-H522 > 100 µM | OVCAR-5 > 100 µM | SF-295 > 100 µM | SK-MEL-5 > 100 µM | UACC-257 > 100 µM | UACC-62 > 100 µM
> 100 µM: HCT-15

COCC1C(=O)c2cc3c(cc2C12C=CC1(C=C2)OCCO1)OCO3 (stereo unspecified)
inactive: CAKI-1 15.9 µM | HL-60 2.09 µM | HOP-92 14.5 µM | K562 2 µM | KM12 4.57 µM | M14 3.38 µM | MOLT-4 1.65 µM | NCI-H226 10.9 µM | NCI-H460 13.8 µM | NCI-H522 1.63 µM | SF-295 14.4 µM | SK-MEL-5 > 10 µM | UACC-257 17.9 µM | UACC-62 12.2 µM
1.6 µM: HCT-15

O=C(Cc1csc(-c2nc(CC(=O)NNc3ccccc3)cs2)n1)NNc1ccccc1
inactive: A498 > 100 µM | CAKI-1 > 100 µM | HL-60 32 µM | HOP-92 > 100 µM | K562 32.8 µM | KM12 > 100 µM | M14 > 100 µM | MOLT-4 39.4 µM | NCI-H226 > 100 µM | NCI-H460 23.5 µM | NCI-H522 20.4 µM | OVCAR-5 > 100 µM | SF-295 > 100 µM | SK-MEL-5 > 100 µM | UACC-257 > 100 µM | UACC-62 > 100 µM | UO-31 > 100 µM
38.4 µM: HCT-15

CC(=O)CCC1(c2ccccc2)OC(=O)C(C#N)=C1c1ccccc1 (stereo unspecified)
> 100 µM: HCT-15
inactive: A498 > 100 µM | HOP-92 50 µM | K562 50.6 µM | KM12 > 100 µM | M14 > 100 µM | MOLT-4 33.7 µM | NCI-H460 > 100 µM | NCI-H522 1.53 µM | OVCAR-5 > 100 µM | SF-295 > 100 µM | SK-MEL-5 > 100 µM | UACC-257 > 100 µM | UACC-62 > 100 µM | UO-31 29.2 µM

N#CC1CCCCOCCOCCOCCOCCOCCCCCC1=O (stereo unspecified)
inactive: A498 > 100 µM | CAKI-1 > 100 µM | HL-60 > 100 µM | K562 > 100 µM | KM12 > 100 µM | M14 > 100 µM | MOLT-4 > 100 µM | NCI-H226 > 100 µM | NCI-H460 > 100 µM | NCI-H522 > 100 µM | OVCAR-5 > 100 µM | SF-295 > 100 µM | SK-MEL-5 > 100 µM | UACC-257 > 100 µM | UACC-62 > 100 µM | UO-31 > 100 µM
> 100 µM: HCT-15

O=C(/C(=C\c1ccc(Cl)cc1)c1ccccc1)c1ccccc1
inactive: A498 65 µM | HL-60 15 µM | HOP-92 4.74 µM | K562 54.1 µM | KM12 22 µM | M14 73.5 µM | MOLT-4 51.3 µM | NCI-H226 39.6 µM | NCI-H460 53.8 µM | NCI-H522 31.6 µM | OVCAR-5 22.7 µM | SF-295 94.4 µM | UACC-257 42.5 µM | UACC-62 > 100 µM | UO-31 65.2 µM
90.4 µM: HCT-15

NC1=NS(=O)(=O)Nc2nc(-c3ccc([N+](=O)[O-])cc3)[nH]c21
> 100 µM: HCT-15
inactive: CAKI-1 > 100 µM | HL-60 > 100 µM | HOP-92 > 100 µM | K562 > 100 µM | KM12 > 100 µM | M14 > 100 µM | MOLT-4 > 100 µM | NCI-H460 > 100 µM | NCI-H522 > 100 µM | OVCAR-5 > 100 µM | SF-295 > 100 µM | SK-MEL-5 > 100 µM | UACC-62 > 100 µM | UO-31 > 100 µM

COC(=O)C1C2C=CC(C2)C1(C(=O)OC)[S+]([O-])CC12CCC(CC1O)C2(C)C (stereo unspecified)
inactive: A498 > 100 µM | CAKI-1 > 100 µM | HL-60 > 100 µM | HOP-92 > 100 µM | K562 39.4 µM | KM12 > 100 µM | M14 > 100 µM | MOLT-4 > 100 µM | NCI-H226 > 100 µM | NCI-H460 > 100 µM | NCI-H522 > 100 µM | OVCAR-5 > 100 µM | SF-295 > 100 µM | SK-MEL-5 > 100 µM | UACC-257 > 100 µM | UACC-62 > 100 µM | UO-31 > 100 µM
19.2 µM: HCT-15

Cc1cc(Br)cc(C)c1NC(=O)C(=O)C(C(=O)c1ccncc1)C1OC(=O)c2ccccc21 (stereo unspecified)
> 100 µM: HCT-15
inactive: A498 > 100 µM | CAKI-1 > 100 µM | HL-60 > 100 µM | HOP-92 > 100 µM | K562 > 100 µM | KM12 > 100 µM | M14 > 100 µM | MOLT-4 > 100 µM | NCI-H226 > 100 µM | NCI-H460 > 100 µM | NCI-H522 > 100 µM | OVCAR-5 > 100 µM | UACC-257 > 100 µM | UACC-62 > 100 µM | UO-31 > 100 µM

CCCCCCC(=O)OC[n+]1ccc2c(C)c3[nH]c4ccccc4c3c(C)c2c1
inactive: CAKI-1 1.58 µM | HL-60 2.23 µM | HOP-92 3.18 µM | M14 1.29 µM | NCI-H226 1.46 µM | NCI-H522 1.56 µM | OVCAR-5 1.71 µM | SK-MEL-5 1.56 µM | UACC-257 1.79 µM | UACC-62 2.72 µM | UO-31 3.42 µM
active: A498 1.01 µM | MOLT-4 0.118 µM | NCI-H460 0.0728 µM | SF-295 0.836 µM
0.348 µM: HCT-15

CSc1c([S+](C)[O-])[nH]c2cc(Br)cc(Br)c12 (stereo unspecified)
inactive: A498 22.1 µM | CAKI-1 25.1 µM | HL-60 21.3 µM | HOP-92 10.9 µM | K562 24.2 µM | KM12 24.6 µM | M14 25.6 µM | MOLT-4 18.1 µM | NCI-H226 27.4 µM | NCI-H460 16.7 µM | NCI-H522 23.3 µM | SF-295 17.1 µM | SK-MEL-5 18.3 µM | UACC-257 33.3 µM | UACC-62 17.9 µM | UO-31 23.4 µM
22.8 µM: HCT-15

CC(=O)Oc1ccc(O)c(O)c1C/C=C(\C)CC/C=C(\C)CC/C=C(\C)CCC=C(C)C [TETRAPRENYLPHENOLSUILLIN]
inactive: CAKI-1 2.65 µM | HL-60 1.39 µM | M14 1.51 µM | NCI-H522 1.51 µM | UO-31 1.42 µM
active: HOP-92 0.309 µM | KM12 0.476 µM | NCI-H226 0.692 µM | NCI-H460 0.365 µM | OVCAR-5 0.596 µM | SF-295 0.746 µM | UACC-257 0.65 µM
